15 compounds from patent US8062995B2, “Dioxazine-substituted arylamides” (Bayer CropScience AG, priority 2005, dated 2011) can be followed below.

The nature of series [1]: logP determination by HPLC (reversed-phase C18), EEC Directive 79/831 Annex V.A8. As to conditions: HPLC reversed-phase C18, 43° C., acidic range pH 2.7. The format is physicochemical. As to the method:
The logP values given in the tables and Preparation Examples above are determined in accordance with EEC Directive 79/831 Annex V.A8 by HPLC (High Performance Liquid Chromatography) on a reversed-phase column (C 18). Temperature: 43° C. The determination by LC-MS in the acidic range is carried out at pH 2.7 using 0.1% aqueous formic acid and acetonitrile (contains 0.1% formic acid) as mobile phases; linear gradient from 10% acetonitrile to 95% acetonitrile. Calibration is carried out using unbranched alkan-2-ones (having 3 to 16 carbon atoms) with known logP values (determination of the logP values by the retention times using linear interpolation between two successive alkanones).

The test system of series [2] is larvae of the mustard beetle (Phaedon cochleariae). Put plainly: Phaedon test (sprayed Chinese cabbage discs). Format: in vivo. Particulars: for Kill rate after 7d in %: 100 g/ha. As to the method:
(§1) Phaedon Test Solvents: 78 parts by weight of acetone • • 1.5 parts by weight of dimethylformamide Emulsifier: 0.5 part by weight of alkylaryl polyglycol ether To produce a suitable preparation of active compound, 1 part by weight of active compound is mixed with the stated amounts of solvents and emulsifier and the concentrate is diluted with emulsifier-containing water to the desired concentration. Discs of Chinese cabbage (Brassica pekinensis) are sprayed with an active compound preparation of the desired concentration and, after drying, populated with larvae of the mustard beetle (Phaedon cochleariae). After the desired period of time, the activity in % is determined. 100% means that all beetle larvae have been killed; 0% means that none of the beetle larvae have been killed.

For series [3], the system named is caterpillars of the army worm (Spodoptera frugiperda). Put plainly: Spodoptera frugiperda test (SPODFR spray treatment). The format is in vivo. Particulars: for Kill rate after 7d in %: 100 g/ha, spray treatment. As to the method: Spodoptera frugiperda Test (SPODFR Spray Treatment) Solvents: 78 parts by weight of acetone • • 1.5 parts by weight of dimethylformamide Emulsifier: 0.5 part by weight of alkylaryl polyglycol ether To produce a suitable preparation of active compound, 1 part by weight of active compound is mixed with the stated amounts of solvents and emulsifier and the concentrate is diluted with emulsifier-containing water to the desired concentration. Discs of maize leaves (Zea mays) are sprayed with an active compound preparation of the desired concentration and after drying populated with caterpillars of the army worm (Spodoptera frugiperda). After the desired period of time, the activity in % is determined. 100% means that all of the caterpillars have been killed; 0% means that none of the caterpillars have been killed.

For series [4], the system named is Spodoptera frugiperda larvae. The series can be described thus: Spodoptera frugiperda test (treatment by watering). Particulars: for Kill rate after 14d in %: 20 ppm, treatment by watering. The format is in vivo. As to the method:
Spodoptera frugiperda Test Solvent: 7 parts by weight of dimethylformamide Emulsifier: 2 parts by weight of alkylaryl polyglycol ether To produce a suitable preparation of active compound, 1 part by weight of active compound is mixed with the stated amounts of solvent and emulsifier and the concentrate is diluted with water to the desired concentration. Maize plants (Zea mays) are watered with an active compound preparation of the desired concentration and infected with Spodoptera frugiperda larvae. After the desired period of time, the kill in % is determined. 100% means that all larvae have been killed; 0% means that none of the larvae have been killed.

Series [5] deals with green peach aphid (Myzus persicae). Put plainly: Myzus test (MYZUPE spray treatment). Format: in vivo. Particulars: for Kill rate after 5d in %: 100 g/ha, spray treatment. As to the method: as §1, with “Myzus” for “Phaedon”, “Test (MYZUPE Spray Treatment)” for “Test”, “pekinensis), which are infested by all stages of the green peach aphid (Myzus persicae)” for “pekinensis)”, “concentration.” for “concentration and, after drying, populated with larvae of the mustard beetle (Phaedon cochleariae).”, “aphids” for “beetle larvae”

The subject of series [6] is caterpillars of the army worm (Spodoptera exigua). The series can be described thus: Spodoptera exigua test (leaf dip). Format: in vivo. As to the method:
(§2) Spodoptera exigua Test Solvent: 7 parts by weight of dimethylformamide Emulsifier: 2 parts by weight of alkylaryl polyglycol ether To produce a suitable preparation of active compound, 1 part by weight of active compound is mixed with the stated amounts of solvent and emulsifier and the concentrate is diluted with emulsifier-containing water to the desired concentration. Cabbage leaves (Brassica oleracea) are treated by being dipped into the active compound preparation of the desired concentration and populated with caterpillars of the army worm (Spodoptera exigua) while the leaves are still moist. After the desired period of time, the kill in % is determined. 100% means that all caterpillars have been killed; 0% means that none of the caterpillars have been killed.

Series [7] concerns caterpillars of the cotton bollworm (Heliothis armigera). The series can be described thus: Heliothis armigera test (leaf dip). Format: in vivo. As to the method:
as §2, with “Heliothis armigera” for “Spodoptera exigua”, “Soya bean” for “Cabbage”, “(Glycine max.)” for “(Brassica oleracea)”, “cotton bollworm (Heliothis armigera)” for “army worm (Spodoptera exigua)”

In series [8] the test system is Spodoptera exigua, resistant strain. The series can be described thus: Spodoptera exigua test; resistant strain. The format is in vivo. As to the method:
Spodoptera exigua Test; Resistant Strain
Solvent: 7 parts by weight of dimethylformamide
Emulsifier: 2 parts by weight of alkylaryl polyglycol ether
To produce a suitable preparation of active compound, 1 part by weight of active compound is mixed with the stated amounts of solvent and emulsifier and the concentrate is diluted with emulsifier-containing water to the desired concentration.
Cabbage leaves (Brassica oleracea) are treated by being dipped into the active compound preparation of the desired concentration and populated with caterpillars of the army worm (Spodoptera exigua, resistant strain) while the leaves are still moist.
After the desired period of time, the kill in % is determined. 100% means that all caterpillars have been killed; 0% means that none of the caterpillars have been killed.

`Cc1cc(Cl)cc(C2=NOCCO2)c1NC(=O)c1cc(Br)cn1-c1ncccc1Cl` [Example I-1-25] returned a logP in series [1] of 3.50. Also, in series [2], the “activity in the Phaedon test (in words)” value is on record as “good activity” and the “Kill rate after 7d in %” value is given as 83%. In addition, in series [3], the “activity in the Spodoptera frugiperda test, spray treatment (in words)” value was “good activity” and the “Kill rate after 7d in %” value worked out at 83%.
Compound `Cc1cccc(C2=NOCCO2)c1NC(=O)c1cc(C(F)(F)F)nn1-c1ncccc1Cl` [Example I-1-3] yielded a logP in series [1] of 3.00. Moreover, in series [3], the “activity in the Spodoptera frugiperda test, spray treatment (in words)” value was “good activity” and the “Kill rate after 7d in %” value turned out to be 100%. In series [4], the “activity in the Spodoptera frugiperda test, watering (in words)” value is listed as “good activity” and the “Kill rate after 14d in %” value came out at 95%.
The compound `Cc1cc(Br)cc(C2=NOCCN2)c1NC(=O)c1cc(Cl)nn1-c1ncccc1Cl` [Example I-1-30] returned a logP in series [1] of 2.35. Further, in series [2], the “activity in the Phaedon test (in words)” value is “good activity” and the “Kill rate after 7d in %” value was 100%. For the same compound, in series [5], the “activity in the Myzus test, spray treatment (in words)” value (shortened to “activity in the Myzus test”) is given as “good activity” and the “Kill rate after 5d in %” value came out at 100%. Also, in series [3], the “activity in the Spodoptera frugiperda test, spray treatment (in words)” value is “good activity” and the “Kill rate after 7d in %” value came to 100%.
As for `Cc1cccc(C2=NOCCN2)c1NC(=O)c1cc(Br)cn1-c1ncccc1Cl` [Example I-1-28], the lipophilicity (logP) in series [1] was 1.83. In series [2], the “activity in the Phaedon test (in words)” value was “good activity” and the “Kill rate after 7d in %” value came to 100%. Also, in series [3], the “activity in the Spodoptera frugiperda test, spray treatment (in words)” value is listed as “good activity” and the “Kill rate after 7d in %” value is listed as 100%.
In series [1], `Cc1cc(Br)cc(C2=NOCCO2)c1NC(=O)c1cc(Cl)nn1-c1ncccc1Cl` [Example I-1-10] returned a lipophilicity (logP) of 3.18. In addition, the “activity in the Phaedon test (in words)” value in series [2] is recorded as “good activity”. Further, the “Kill rate after 7d in %” value worked out at 100% in series [2]; 100% in series [3]; 100% in series [6] (20 ppm, 7 d); 100% in series [7] (20 ppm, 7 d); 100% in series [8] (20 ppm, 7 d, resistant strain). Also, in series [3], the “activity in the Spodoptera frugiperda test, spray treatment (in words)” value was “good activity”. In series [4], the “activity in the Spodoptera frugiperda test, watering (in words)” value is reported as “good activity”. In series [4], the “Kill rate after 14d in %” value came to 90%. Moreover, the “activity in the Spodoptera exigua test (in words)” value in series [6] is given as “good activity”. In addition, the “activity in the Heliothis armigera test (in words)” value in series [7] was “good activity”. The “activity in the Spodoptera exigua test, resistant strain (in words)” value in series [8] is recorded as “good activity”.
In turn, `Cc1cccc(C2=NOCCO2)c1NC(=O)c1cc(Br)nn1-c1ncccc1Cl` [Example I-1-4] yielded a logP in series [1] of 2.59. In addition, in series [3], the “activity in the Spodoptera frugiperda test, spray treatment (in words)” value was “good activity” and the “Kill rate after 7d in %” value turned out to be 100%.
`Cc1cc(Cl)cc(C2=NOCCO2)c1NC(=O)c1cc(C(F)(F)F)nn1-c1ncccn1` [Example I-1-14] had a logP in series [1] of 2.79.
Take `Cc1cc(I)cc(C2=NOCCN2)c1NC(=O)c1cc(Cl)nn1-c1ncccc1Cl` [Example I-1-26]: the logP in series [1] was 2.44. Also, in series [2], the “activity in the Phaedon test (in words)” value is given as “good activity” and the “Kill rate after 7d in %” value was 100%. In series [5], the “activity in the Myzus test” value is “good activity” and the “Kill rate after 5d in %” value stood at 100%. Moreover, in series [3], the “activity in the Spodoptera frugiperda test, spray treatment (in words)” value was “good activity” and the “Kill rate after 7d in %” value is recorded as 100%.
In series [1], `O=C(Nc1c(Cl)cc(Cl)cc1C1=NOCCO1)c1cc(C(F)(F)F)nn1-c1ncccn1` [Example I-1-15] showed a logP of 2.80.
`O=C(Nc1c(Cl)cc(Cl)cc1C1=NOCCO1)c1cc(Br)cn1-c1ncccc1Cl` [Example I-1-21] registered a logP in series [1] of 3.48. Also, in series [2], the “activity in the Phaedon test (in words)” value is listed as “good activity” and the “Kill rate after 7d in %” value turned out to be 100%. Moreover, in series [3], the “activity in the Spodoptera frugiperda test, spray treatment (in words)” value was “good activity” and the “Kill rate after 7d in %” value is on record as 100%.
Regarding `O=C(Nc1c(Cl)cccc1C1=NOCCN1)c1cc(Br)nn1-c1ncccc1Cl` [Example I-1-27], in series [1], the logP is 1.89.
Take `Cc1cc(Br)cc(C2=NOCCN2)c1NC(=O)c1cc(C(F)(F)F)nn1-c1ncccc1Cl` [Example I-1-29]: the logP in series [1] amounted to 2.80. Also, in series [2], the “activity in the Phaedon test (in words)” value was “good activity” and the “Kill rate after 7d in %” value was found to be 100%. In addition, in series [5], the “activity in the Myzus test” value is given as “good activity” and the “Kill rate after 5d in %” value was 100%. Also, in series [3], the “activity in the Spodoptera frugiperda test, spray treatment (in words)” value is on record as “good activity” and the “Kill rate after 7d in %” value is given as 100%.
For the compound `O=C(Nc1c(Cl)cc(Cl)cc1C1=NOCCO1)c1cc(Br)nn1-c1c(Cl)cccc1Cl` [Example I-1-13], in series [1], the logP is listed as 3.98. Besides, in series [2], the “activity in the Phaedon test (in words)” value is “good activity” and the “Kill rate after 7d in %” value stood at 100%.
Regarding `Cc1cc(Br)cc(C2=NOCCO2)c1NC(=O)c1cc(Br)nn1-c1ncccc1Cl` [Example I-1-12], the logP in series [1] stood at 3.24. Moreover, in series [2], the “activity in the Phaedon test (in words)” value was “good activity” and the “Kill rate after 7d in %” value was found to be 100%. Further, in series [3], the “activity in the Spodoptera frugiperda test, spray treatment (in words)” value is “good activity” and the “Kill rate after 7d in %” value is given as 100%.
With `O=C(Nc1c(Cl)cc(Cl)cc1C1=NOCCO1)c1cc(Cl)nn1-c1ncccc1Cl` [Example I-1-2], in series [1], the logP is listed as 3.07. Moreover, in series [2], the “activity in the Phaedon test (in words)” value is listed as “good activity” and the “Kill rate after 7d in %” value is on record as 100%. In series [5], the “activity in the Myzus test” value is given as “good activity” and the “Kill rate after 5d in %” value is 80%. Besides, in series [3], the “activity in the Spodoptera frugiperda test, spray treatment (in words)” value was “good activity” and the “Kill rate after 7d in %” value was 100%.

Broadly, the logP is the decadic logarithm of the partition coefficient of the neutral form, usually between octanol and water. A higher logP goes with a more lipophilic compound.
